Tests used:
human ABHD6 = human ABHD6 (Homo sapiens (Human), UniProt Q9BV23); assay: Measurement of binding affinity for human ABHD6 (BRET, HEK293 cells expressing NanoLuc-human ABHD6 fusion protein); settings: BRET competition with fluorescent probe molecule 100 nmol/L in HEK293 cells expressing NanoLuc-human ABHD6
Method: The binding affinity of the test compound for human ABHD6 was measured using bioluminescence resonance energy transfer (hereinafter, abbreviated as BRET) as an index. The bioluminescence resonance energy transfer is induced by the proximity of a probe molecule and a NanoLuc-human ABHD6 fusion protein, which is caused by allowing a fluorescent probe molecule and a test compound to act in a competitive manner using HEK293 cells forcibly expressing the NanoLuc-human ABHD6 fusion protein.
The test compound and the compound described in Example 2 as a control substance were each dissolved in dimethyl sulfoxide (DMSO) to prepare a 10 mmol/L solution. The prepared 10 mmol/L solution was thawed at the time of use, serially diluted with DMSO, and subjected to an experiment.
HEK293 cells expressing a NanoLuc-human ABHD6 fusion protein were statically cultured at 37° C. in the presence of 5% CO2 using inactivated (56° C., 30 min) 9.8 vol % non-dialyzed-FBS (containing 0.5 vol % GENETICIN and 1% penicillin-streptomycin). The subculture was performed by the following method.
The culture medium was removed, and the cells were washed once with phosphate buffered saline without Ca^2+ and Mg^2+. An appropriate amount of trypsin-EDTA was added, and the cells were incubated at room temperature. After the cells were detached, a culture medium in a volume 10-fold the volume of trypsin-EDTA (0.05%) was added to stop an enzyme reaction. The cells were collected in a centrifuge tube, and centrifuged at room temperature for 3 minutes at 120 g, and the supernatant was removed. The cells were suspended in an appropriate amount of culture medium and seeded in a culture flask.
HEK293 cells expressing a NanoLuc-human ABHD6 fusion protein were prepared, and then cryopreserved so as to be 5.0×10^6 cells/mL/vial in CELLBANKER2, and the cells were subjected to an experiment. HBSS (+) containing 20 mmol/L HEPES (pH 7.3) and 0.1% BSA was prepared and used as an assay buffer. The cells were thawed and suspended in the assay buffer to prepare a cell suspension of 2×10^5 cells/mL. […] The plate was allowed to stand at 37° C. for 30 minutes in the presence of 5% CO2. Then, a probe molecule (10 mmol/L in DMSO) having a fluorophore was diluted with the assay buffer so as to have a final concentration of 100 nmol/L, and added to the assay plate in an amount of 15 μL each. Further, this was allowed to stand at 37° C. for 30 minutes in the presence of 5% CO2. Then, a Nano-Glo (registered trademark) Vivazine (trademark) substrate (Promega Corporation) was diluted with the assay buffer according to the method described in the protocol, and added to the assay plate in an amount of 10 μL each, and this was allowed to stand at room temperature for 1 hour. Thereafter, the luminescence and fluorescence intensity were measured using a GloMax (registered trademark) discover system. The ratio between the emission intensity through the 450 nm bandpass filter and the fluorescence intensity through the 600 nm longpass filter was defined as the measured value of each sample. The measured value of the group containing the control substance at a final concentration of 30 μmol/L was defined as 100% inhibition. The measured value of the group not containing the compound was defined as 0% inhibition. The IC50 value of the test compound was determined from the measured value at each test compound concentration.

[1] = biological target: recombinant human ABHD6 (33-337) (Homo sapiens (Human), UniProt Q9BV23); assay: Evaluation of ABHD6 enzyme inhibitory activity (arachidonic acid production from 1-arachidonoyl glycerol, RapidFire-MS); format: biochemical; settings: inhibition of arachidonic acid production, 10 μmol/L 1-arachidonoyl glycerol, 1 hour, room temperature
Method: The recombinant human ABHD6 (33-337) was a GST-tagged ABHD6, and one which was expressed in E. coli, then purified with a Glutathione-Sepharose 4B resin, and then concentrated was used. The enzyme reaction was carried out at room temperature using a 384-well microplate made of polypropylene, and wells to which no enzyme was added were designated as a blank group.
One hour after the start of the enzyme reaction, methanol containing, as an internal standard substance, arachidonic acid-d8 (Cayman Chemical) and 1% formic acid was added to stop enzymatic reaction. The upper part of the enzyme reaction plate was sealed with aluminum, and centrifugation was performed at 560 g for 5 minutes at room temperature. Then, arachidonic acid as an enzyme reaction product and arachidonic acid-ds as the internal standard substance were quantified with RapidFire (registered trademark)-Mass Spectrometry system.

Chain of recombinant human ABHD6 (33-337) (Q9BV23 33-337): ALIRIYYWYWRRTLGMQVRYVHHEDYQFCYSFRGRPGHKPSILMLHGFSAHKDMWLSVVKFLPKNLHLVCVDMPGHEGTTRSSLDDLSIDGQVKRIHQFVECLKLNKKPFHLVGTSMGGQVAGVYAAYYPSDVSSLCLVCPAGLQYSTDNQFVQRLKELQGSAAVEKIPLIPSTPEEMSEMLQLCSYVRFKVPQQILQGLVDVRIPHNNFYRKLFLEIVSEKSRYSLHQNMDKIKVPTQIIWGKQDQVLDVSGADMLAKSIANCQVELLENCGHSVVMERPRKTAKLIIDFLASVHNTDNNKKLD
Chain of human ABHD6 (Q9BV23 whole entry, the tested form may be a part): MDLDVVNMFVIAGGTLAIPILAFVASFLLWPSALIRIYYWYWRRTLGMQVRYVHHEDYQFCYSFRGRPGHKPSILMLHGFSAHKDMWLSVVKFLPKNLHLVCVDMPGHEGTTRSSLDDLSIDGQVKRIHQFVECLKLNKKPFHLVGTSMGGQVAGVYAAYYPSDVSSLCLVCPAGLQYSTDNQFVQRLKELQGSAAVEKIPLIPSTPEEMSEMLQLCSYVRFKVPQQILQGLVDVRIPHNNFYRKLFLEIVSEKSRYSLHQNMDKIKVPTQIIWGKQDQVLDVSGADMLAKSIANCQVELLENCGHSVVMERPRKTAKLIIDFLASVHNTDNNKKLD

**Q.** For Cc1ccc(C(=O)N2C[C@@H]3CC[C@@H](n4ccc5cc(Cl)nnc54)[C@@H]3C2)s1 (racemic) [Example 8-1, rel-[(3aS,4R,6aR)-4-(3-Chloro-7H-pyrrolo[2,3-c]pyridazin-7-yl)hexahydrocyclopenta[c]pyrrol-2(1H)-yl](5-methyl-2-thienyl)methanone], which IC50 (human ABHD6) is on record?
**A.** The IC50 was 5 nM.

**Q.** And the IC50 [1]?
**A.** The IC50 was 1 nM.

**Q.** Which results are given for Cc1ccc(C(=O)N2C[C@@H]3CC[C@@H](Nc4nnc(Cl)cc4C#N)[C@@H]3C2)s1 (relative stereo) [Example 9, rel-6-Chloro-3-({(3aS,4R,6aR)-2-[(5-methyl-2-thienyl)carbonyl]octahydrocyclopenta[c]pyrrol-4-yl}amino)-4-pyridazinecarbonitrile]?
**A.** IC50 (human ABHD6): 8 nM; IC50 [1]: 2 nM

**Q.** With O=C(c1ccc(C(F)F)s1)N1C[C@@H]2CC[C@@H](Nc3ccc(Cl)nn3)[C@@H]2C1 [Example 1, {(3aS,4R,6aR)-4-[(6-Chloro-3-pyridazinyl)amino]hexahydrocyclopenta[c]pyrrol-2(1H)-yl}[5-(difluoromethyl)-2-thienyl]methanone] as the molecule, how does the IC50 (human ABHD6) read?
**A.** The IC50 was 11 nM.

**Q.** And the IC50 [1]?
**A.** Its IC50 is 1 nM.

**Q.** Which results are given for Cc1ccc(C(=O)N2C[C@@H]3CC[C@@H](Nc4ccc(Cl)nn4)[C@@H]3C2)s1 [Example 1-2, {(3aS,4R,6aR)-4-[(6-Chloro-3-pyridazinyl)amino]hexahydrocyclopenta[c]pyrrol-2(1H)-yl}(5-methyl-2-thienyl)methanone]?
**A.** IC50 (human ABHD6): 5 nM; IC50 [1]: 1 nM

**Q.** What does the source list for O=C(c1cc2c(s1)CCOC2)N1C[C@@H]2CC[C@@H](Nc3ccc(Cl)nn3)[C@@H]2C1 [Example 1-4, [(3aS,4R,6aR)-4-[(6-Chloro-3-pyridazinyl)amino]hexahydrocyclopenta[c]pyrrol-2(1H)-yl](6,7-dihydro-4H-thieno[3,2-c]pyran-2-yl)methanone]?
**A.** IC50 (human ABHD6): 2 nM; IC50 [1]: 1 nM

**Q.** Which results are given for Cc1ccc(C(=O)N2C[C@@H]3CC[C@@H](Nc4ccc(Br)nn4)[C@@H]3C2)s1 [Example 2, [(3aS,4R,6aR)-4-[(6-Bromo-3-pyridazinyl)amino]hexahydrocyclopenta[c]pyrrol-2(1H)-yl](5-methyl-2-thienyl)methanone]?
**A.** IC50 (human ABHD6): 1 nM; IC50 [1]: < 1 nM

**Q.** Which results are given for O=C(c1cc2c(s1)CCOC2)N1C[C@@H]2CC[C@@H](Nc3ccc(Br)nn3)[C@@H]2C1 [Example 2-1, [(3aS,4R,6aR)-4-[(6-Bromo-3-pyridazinyl)amino]hexahydrocyclopenta[c]pyrrol-2(1H)-yl](6,7-dihydro-4H-thieno[3,2-c]pyran-2-yl)methanone]?
**A.** IC50 (human ABHD6): 3 nM; IC50 [1]: 1 nM

**Q.** With CN(C)c1ncc(C(=O)N2C[C@@H]3CC[C@@H](Nc4ccc(Br)nn4)[C@@H]3C2)s1 [Example 2-6, [(3aS,4R,6aR)-4-[(6-Bromo-3-pyridazinyl)amino]hexahydrocyclopenta[c]pyrrol-2(1H)-yl][2-(dimethylamino)-1,3-thiazol-5-yl]methanone] as the molecule, how does the IC50 (human ABHD6) read?
**A.** Its IC50 is 25 nM.

**Q.** What does the source list for O=C(C1CC2CCC1CC2)N1C[C@@H]2CC[C@@H](Nc3ccc(Br)nn3)[C@@H]2C1 (stereo partly drawn) [Example 2-14, Bicyclo[2.2.2]oct-2-yl[(3aS,4R,6aR)-4-[(6-bromo-3-pyridazinyl)amino]hexahydrocyclopenta[c]pyrrol-2(1H)-yl]methanone]?
**A.** IC50 (human ABHD6): 16 nM; IC50 [1]: 2 nM

**Q.** With CN1C(=O)CCc2sc(C(=O)N3C[C@@H]4CC[C@@H](Nc5ccc(Br)nn5)[C@@H]4C3)cc21 [Example 3, 2-{[(3aS,4R,6aR)-4-[(6-Bromo-3-pyridazinyl)amino]hexahydrocyclopenta[c]pyrrol-2(1H)-yl]carbonyl}-4-methyl-6,7-dihydrothieno[3,2-b]pyridin-5(4H)-one] as the molecule, how does the IC50 (human ABHD6) read?
**A.** The IC50 was 62 nM.

**Q.** What about the IC50 [1] of the same molecule?
**A.** Its IC50 is 5 nM.

**Q.** How did the IC50 (human ABHD6) turn out when O=C(c1cc2nn3c(c2s1)CCC3)N1C[C@@H]2CC[C@@H](Nc3ccc(Br)nn3)[C@@H]2C1 [Example 3-6, [(3aS,4R,6aR)-4-[(6-Bromo-3-pyridazinyl)amino]hexahydrocyclopenta[c]pyrrol-2(1H)-yl](7,8-dihydro-6H-pyrrolo[1,2-b]thieno[2,3-d]pyrazol-2-yl)methanone] was run?
**A.** Its IC50 is 6 nM.

**Q.** What about the IC50 [1] of the same molecule?
**A.** Its IC50 is 2 nM.

**Q.** Cn1cc2sc(C(=O)N3C[C@@H]4CC[C@@H](Nc5ccc(Br)nn5)[C@@H]4C3)cc2n1 [Example 3-9, [(3aS,4R,6aR)-4-[(6-Bromo-3-pyridazinyl)amino]hexahydrocyclopenta[c]pyrrol-2(1H)-yl](2-methyl-2H-thieno[3,2-c]pyrazol-5-yl)methanone] was tested. Which IC50 (human ABHD6) did it give?
**A.** The IC50 was 5 nM.

**Q.** What about the IC50 [1] of the same molecule?
**A.** Its IC50 is 1 nM.

**Q.** How did the IC50 (human ABHD6) turn out when O=C(c1cc2nn(C3CC3)cc2s1)N1C[C@@H]2CC[C@@H](Nc3ccc(Br)nn3)[C@@H]2C1 [Example 3-10, [(3aS,4R,6aR)-4-[(6-Bromo-3-pyridazinyl)amino]hexahydrocyclopenta[c]pyrrol-2(1H)-yl](2-cyclopropyl-2H-thieno[3,2-c]pyrazol-5-yl)methanone] was run?
**A.** The IC50 was 2 nM.

**Q.** What about the IC50 [1] of the same molecule?
**A.** The IC50 was 1 nM.

**Q.** For Cc1ccc(C(=O)N2C[C@@H]3CC[C@@H](Nc4ccc(I)nn4)[C@@H]3C2)s1 [Example 5, [(3aS,4R,6aR)-4-[(6-Iodo-3-pyridazinyl)amino]hexahydrocyclopenta[c]pyrrol-2(1H)-yl](5-methyl-2-thienyl)methanone], which IC50 (human ABHD6) is on record?
**A.** The IC50 was 3 nM.

**Q.** What about the IC50 [1] of the same molecule?
**A.** Its IC50 is 1 nM.

**Q.** With Cc1ccc(C(=O)N2C[C@@H]3CC[C@@H](N(Cc4ccccc4)c4ccc(Br)nn4)[C@@H]3C2)s1 [Example 6-2, [(3aS,4R,6aR)-4-[Benzyl(6-bromo-3-pyridazinyl)amino]hexahydrocyclopenta[c]pyrrol-2(1H)-yl](5-methyl-2-thienyl)methanone] as the molecule, how does the IC50 (human ABHD6) read?
**A.** The IC50 was 1 nM.

**Q.** What about the IC50 [1] of the same molecule?
**A.** The IC50 was 1 nM.

**Q.** How did the IC50 (human ABHD6) turn out when Cc1ccc(C(=O)N2C[C@@H]3CC[C@@H](Nc4ccc(Br)nn4)[C@]3(F)C2)s1 [Example 10, [(3aR,4R,6aS)-4-[(6-Bromopyridazin-3-yl)amino]-3a-fluoro-1.3.4.5.6.6a-hexahydrocyclopenta[c]pyrrol-2-yl]-(5-methyl-2-thienyl)methanone] was run?
**A.** The IC50 was 2 nM.

**Q.** What about the IC50 [1] of the same molecule?
**A.** The IC50 was under 1 nM.

**Q.** With O=C(c1cc2c(s1)CCOC2)N1C[C@@H]2CC[C@@H](Nc3ccc(Cl)nn3)[C@]2(F)C1 [Example 12, {(3aR,4R,6aS)-4-[(6-Chloro-3-pyridazinyl)amino]-3a-fluorohexahydrocyclopenta[c]pyrrol-2(1H)-yl}(6,7-dihydro-4H-thieno[3,2-c]pyran-2-yl)methanone] as the molecule, how does the IC50 (human ABHD6) read?
**A.** The IC50 was 1 nM.

**Q.** And the IC50 [1]?
**A.** The IC50 was 1 nM.

**Q.** How did the IC50 (human ABHD6) turn out when O=C(c1cc2c(s1)CCOC2)N1C[C@@H]2CC3(CC3)[C@@H](Nc3ccc(Br)nn3)[C@@H]2C1 [Example 15, [(3aS, 4S, 6aR)-4-[(6-Bromopyridazin-3-yl)amino]spiro[1,3,3a,4,6,6a-hexahydrocyclopenta[c]pyrrole-5,1′-cyclopropan]-2-yl]-(6,7-dihydro-4H-thieno[3,2-c]pyran-2-yl)methanone] was run?
**A.** The IC50 was 1 nM.

**Q.** And the IC50 [1]?
**A.** The IC50 was 1 nM.

**Q.** O=C(c1cc2c(s1)CCOC2)N1C[C@H]2[C@H](Nc3ccc(Br)nn3)CC(F)(F)[C@H]2C1 [Example 16, [(3aR,6R,6aS)-6-[(6-Bromo-3-pyridazinyl)amino]-4,4-difluorohexahydrocyclopenta[c]pyrrol-2(1H)-yl](6,7-dihydro-4H-thieno[3,2-c]pyran-2-yl)methanone] was tested. Which IC50 (human ABHD6) did it give?
**A.** The IC50 was 4 nM.

**Q.** And the IC50 [1]?
**A.** The IC50 was 1 nM.
